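Following 48 hours of exposure in 96-well plates, responses at five concentrations were used to interpolate endpoints linearly. At the TGI there is no net growth.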 Active and inactive are the calls of the source. Rule as the data show it: active = GI50 below about 0.43 µM; inactive = the rest.
Tests used:
Experiment in all cases: NCI-60 cell line screen, 48 h
[1] = system: TK-10 renal
[2] = system: SK-MEL-28 melanoma
[3] = system: MDA-MB-231 breast
[4] = system: SK-MEL-2 melanoma
[5] = system: HS 578T breast
[6] = system: UACC-62 melanoma
[7] = system: SK-OV-3 ovarian
[8] = system: DU-145 prostate
[9] = system: OVCAR-3 ovarian
[10] = system: NCI-H522 lung
[11] = system: SF-295 CNS
[12] = system: HT29 colon
[13] = system: NCI/ADR-RES ovarian
[14] = system: CAKI-1 renal
[15] = system: U251 CNS
[16] = system: HCT-116 colon
[17] = system: SK-MEL-5 melanoma
[18] = system: HOP-92 NSCLC
[19] = system: RPMI-8226 leukemia
[20] = system: IGROV1 ovarian
[21] = system: EKVX NSCLC
[22] = system: HL-60(TB) leukemia
[23] = system: SN12C renal
[24] = system: KM12 colon
[25] = system: COLO 205 colon
[26] = system: OVCAR-8 ovarian
[27] = system: SR leukemia
[28] = system: A549 NSCLC
[29] = system: MCF7 breast
[30] = system: T-47D breast
[31] = system: K-562 leukemia
[32] = system: OVCAR-5 ovarian
[33] = system: SW-620 colon
[34] = system: HCC-2998 colon
[35] = system: RXF 393 renal
[36] = system: ACHN renal
[37] = system: UO-31 renal
[38] = system: UACC-257 melanoma
[39] = system: HCT-15 colon
[40] = system: CCRF-CEM leukemia
[41] = system: 786-0 renal
[42] = system: BT-549 breast
[43] = system: M14 melanoma
[44] = system: HOP-62 NSCLC
[45] = system: NCI-H226 lung
[46] = system: SNB-19 CNS
[47] = system: MOLT-4 leukemia
[48] = system: A498 renal
[49] = system: MALME-3M melanoma
[50] = system: PC-3 prostate
[51] = system: SF-539 CNS
[52] = system: NCI-H460 lung
[53] = system: OVCAR-4 ovarian
[54] = system: MDA-MB-435
[55] = system: LOX IMVI melanoma
[56] = system: SNB-75 CNS
[57] = system: SF-268 CNS
[58] = system: MDA-N
[59] = system: NCI-H23 lung

Structure (SMILES): C=CCN1C(=O)CNC1=S
- TGI [1]: > 100 µM
- TGI [2]: > 100 µM
- TGI [3]: > 100 µM
- TGI [4]: > 100 µM
- TGI [5]: > 100 µM
- TGI [6]: > 100 µM
- TGI [7]: > 100 µM
- TGI [8]: > 100 µM
- TGI [9]: > 100 µM
- TGI [10]: > 100 µM
- TGI [11]: > 100 µM
- TGI [12]: > 100 µM
- TGI [13]: > 100 µM
- TGI [14]: > 100 µM
- TGI [15]: > 100 µM
- TGI [16]: > 100 µM
- TGI [17]: > 100 µM
- TGI [18]: > 100 µM
- TGI [19]: > 100 µM
- TGI [20]: > 100 µM
- TGI [21]: > 100 µM
- TGI [22]: 78.9 µM
- TGI [23]: > 100 µM
- TGI [24]: > 100 µM
- TGI [25]: > 100 µM
- TGI [26]: > 100 µM
- TGI [27]: > 100 µM
- TGI [28]: > 100 µM
- TGI [29]: > 100 µM
- TGI [30]: > 100 µM
- TGI [31]: > 100 µM
- TGI [32]: > 100 µM
- TGI [33]: > 100 µM
- TGI [34]: > 100 µM
- TGI [35]: > 100 µM
- TGI [36]: > 100 µM
- TGI [37]: > 100 µM
- TGI [38]: > 100 µM
- TGI [39]: > 100 µM
- TGI [40]: 77.6 µM
- TGI [41]: > 100 µM
- TGI [42]: > 100 µM
- TGI [43]: > 100 µM
- TGI [44]: > 100 µM
- TGI [45]: > 100 µM
- TGI [46]: > 100 µM
- TGI [47]: > 100 µM
- TGI [48]: > 100 µM
- TGI [49]: > 100 µM
- TGI [50]: > 100 µM
- TGI [51]: > 100 µM
- TGI [52]: > 100 µM
- TGI [53]: > 100 µM
- TGI [54]: > 100 µM
- TGI [55]: > 100 µM
- TGI [56]: > 100 µM
- TGI [57]: > 100 µM
- TGI [58]: > 100 µM
- TGI [59]: > 100 µM

Structure (SMILES): C#CCN(Cc1cc2c(=O)[nH]c(C)nc2cc1C)c1ccc(C(=O)N[C@@H](CCc2nn[nH]n2)C(=O)O)c(F)c1
- outcome [1]: inactive
- outcome [2]: inactive
- outcome [3]: inactive
- outcome [4]: inactive
- outcome [5]: inactive
- outcome [6]: inactive
- outcome [7]: inactive
- outcome [8]: inactive
- outcome [9]: inactive
- outcome [10]: inactive
- outcome [11]: inactive
- outcome [12]: inactive
- outcome [13]: inactive
- outcome [14]: inactive
- outcome [15]: inactive
- outcome [16]: inactive
- outcome [17]: inactive
- outcome [18]: inactive
- outcome [19]: inactive
- outcome [20]: inactive
- outcome [21]: inactive
- outcome [22]: inactive
- outcome [23]: inactive
- outcome [24]: inactive
- outcome [25]: inactive
- outcome [26]: inactive
- outcome [27]: inactive
- outcome [28]: inactive
- outcome [29]: inactive
- outcome [30]: inactive
- outcome [31]: inactive
- outcome [32]: inactive
- outcome [33]: inactive
- outcome [34]: inactive
- outcome [35]: inactive
- outcome [36]: inactive
- outcome [37]: inactive
- outcome [38]: inactive
- outcome [39]: inactive
- outcome [40]: inactive
- outcome [41]: inactive
- outcome [42]: inactive
- outcome [43]: inactive
- outcome [44]: inactive
- outcome [45]: inactive
- outcome [46]: inactive
- outcome [47]: inactive
- outcome [48]: inactive
- outcome [49]: inactive
- outcome [50]: inactive
- outcome [51]: inactive
- outcome [52]: inactive
- outcome [53]: inactive
- outcome [54]: inactive
- outcome [55]: inactive
- outcome [56]: inactive
- outcome [57]: inactive
- outcome [58]: inactive
- outcome [59]: inactive

Structure (SMILES): COc1ccc(NC2C(=O)C3(C)CCC2C3(C)C)cc1 (configuration not stated)
- TGI [1]: > 100 µM
- TGI [2]: > 100 µM
- TGI [3]: > 100 µM
- TGI [4]: > 100 µM
- TGI [5]: > 100 µM
- TGI [6]: > 100 µM
- TGI [7]: > 100 µM
- TGI [8]: > 100 µM
- TGI [9]: > 100 µM
- TGI [10]: > 100 µM
- TGI [11]: > 100 µM
- TGI [12]: > 100 µM
- TGI [13]: > 100 µM
- TGI [14]: > 100 µM
- TGI [15]: > 100 µM
- TGI [16]: > 100 µM
- TGI [17]: 99.8 µM
- TGI [18]: > 100 µM
- TGI [19]: > 100 µM
- TGI [20]: > 100 µM
- TGI [21]: > 100 µM
- TGI [22]: > 100 µM
- TGI [23]: > 100 µM
- TGI [24]: > 100 µM
- TGI [25]: > 100 µM
- TGI [26]: > 100 µM
- TGI [27]: > 100 µM
- TGI [28]: > 100 µM
- TGI [29]: > 100 µM
- TGI [30]: > 100 µM
- TGI [31]: > 100 µM
- TGI [32]: > 100 µM
- TGI [33]: > 100 µM
- TGI [34]: > 100 µM
- TGI [35]: > 100 µM
- TGI [36]: > 100 µM
- TGI [37]: > 100 µM
- TGI [38]: > 100 µM
- TGI [39]: > 100 µM
- TGI [40]: > 100 µM
- TGI [41]: > 100 µM
- TGI [42]: > 100 µM
- TGI [43]: > 100 µM
- TGI [44]: > 100 µM
- TGI [45]: > 100 µM
- TGI [46]: > 100 µM
- TGI [47]: > 100 µM
- TGI [48]: > 100 µM
- TGI [49]: > 100 µM
- TGI [50]: > 100 µM
- TGI [51]: > 100 µM
- TGI [52]: > 100 µM
- TGI [53]: > 100 µM
- TGI [54]: > 100 µM
- TGI [55]: > 100 µM
- TGI [56]: > 100 µM
- TGI [57]: > 100 µM
- TGI [58]: > 100 µM
- TGI [59]: > 100 µM
